Test results published in ChEMBL document CHEMBL1146341, “Synthesis and in vivo evaluation of [18F]-4-[5-(4-methylphenyl)-3-(trifluoromethyl)-1H-pyrazol-1-yl]benzenesulfonamide as a PET imaging probe for COX-2 expression” (Bioorg Med Chem, 2007).

Legend:
[1] = Drug level in baboon plasma assessed as unmetabolized fractions after 30 mins; type: ADME, cell-free; details: papio hamadryas, read-out: Activity
[2] = Ratio of drug uptake in skeleton to heart in Sprague-Dawley rat at 0.2 mCi, iv after 112 mins; type: ADME, organism-based; details: in vivo
[3] = Ratio of drug uptake in skeleton to cerebellum in Sprague-Dawley rat at 0.2 mCi, iv after 112 mins; type: ADME, organism-based; details: in vivo
[4] = Drug level in baboon plasma assessed as unmetabolized fractions after 12 mins; type: ADME, cell-free; details: papio hamadryas, read-out: Activity
[5] = Ratio of drug uptake in skull to caudate in baboon at 1.2 mCi after 115 mins; type: ADME; details: papio hamadryas, in vivo
[6] = Ratio of drug uptake in skull to putamen in baboon at 1.2 mCi after 115 mins; type: ADME; details: papio hamadryas, in vivo
[7] = Drug level in baboon plasma assessed as unmetabolized fractions after 2 mins; type: ADME, cell-free; details: papio hamadryas, read-out: Activity
[8] = Drug level in baboon plasma assessed as unmetabolized fractions after 60 mins; type: ADME, cell-free; details: papio hamadryas, read-out: Activity
[9] = Ratio of drug uptake in skull to thalamus in baboon at 1.2 mCi after 115 mins; type: ADME, tissue-based; details: papio hamadryas, in vivo
[10] = Ratio of drug uptake in skull to cerebellum in baboon at 1.2 mCi after 115 mins; type: ADME, tissue-based; details: papio hamadryas, in vivo
[11] = Ratio of drug uptake in skeleton to brain in Sprague-Dawley rat at 0.2 mCi, iv after 112 mins; type: ADME, organism-based; details: in vivo
[12] = Ratio of drug uptake in skull to hippocampus in baboon at 1.2 mCi after 115 mins; type: ADME, tissue-based; details: papio hamadryas, in vivo
[13] = Drug level in baboon plasma assessed as unmetabolized fractions after 4 mins; type: ADME, cell-free; details: papio hamadryas, read-out: Activity
[14] = Ratio of drug uptake in skull to cingulate in baboon at 1.2 mCi after 115 mins; type: ADME; details: papio hamadryas, in vivo

- remaining at 0.5 h [1]: 30.2%
- Ratio [2]: 0.7
- Ratio [3]: 0.5
- remaining at 0.2 h [4]: 47.5%
- Ratio [5]: 1.48
- Ratio [6]: 1.46
- remaining at 2 min [7]: 93.2%
- remaining at 1 h [8]: 17%
- Ratio [9]: 1.6
- Ratio [10]: 1.2
- Ratio [11]: 0.45
- Ratio [12]: 1.41
- remaining at 4 min [13]: 84.9%
- Ratio [14]: 1.43
SMILES: Cc1ccc(-c2cc(C(F)(F)[18F])nn2-c2ccc(S(N)(=O)=O)cc2)cc1
